What was measured:
RXR = target: T1, RXR (Homo sapiens, UniProt P19793); assay: Transient transfection assay RXR LBD alone, UASGx4 TK Luc reporter, CV-1 cells; assay type: cell-based; conditions: lipid-stripped serum
T1 construct: transfecting CV-1 cells with either the RXR LBD alone; expressed in transfected cells; host or cells: CV-1 cells
Protocol: (§1) Synthetic compounds were screened in an effort to find more specific LXR inhibitors. CV-1 cells were maintained and transfected using known methods. Forman et al., Cell 81: 687-693, 1995. CV-1 cells were transiently transfected with Gal-hLXRα, the RXR LBD, the UASGx4 TK Luc reporter and CMX-β-gal as an internal control, either in standard or in lipid-stripped serum. After transfection, cells were treated for approximately 40 hours with phenol red-free DMEM-FBS containing the indicated compounds at the following concentrations: T0901317 (100 nM), Clotrimazole (10 μM), S883417(10 μM) and S100250 (10 μM), unless otherwise specified. After exposure to ligand, the cells were harvested and assayed for luciferase and β-galactosidase activity. The luciferase activity was normalized to the internal β-galactosidase control (reporter activity).
The ability of these compounds to repress LXRα and LXRβ was compared by transfecting CV-1 cells with either the RXR LBD alone or the RXR LBD together with either Gal-LXRα or Gal-LXRβ.

NIH 3T3-L1 cells = assay: Toxicity in NIH 3T3-L1 cells during differentiation; assay type: cell-based; conditions: 200 nM T0901317, 7.5 μM Clotrimazole or both, 7 days
Protocol: NIH 3T3-L1 cells were maintained in growth media consisting of Dulbecco's modified Eagle's medium (DMEM) supplemented with 10% calf bovine serum (CBS), 50 U/ml penicillin G and 50 μg/ml streptomycin sulfate. To induce NIH 3T3-L1 differentiation into adipocytes, confluent cells were transferred from their growth media to DMEM containing 10% fetal bovine serum (FBS), 5 μg/ml insulin, 0.5 mM 3-isobutyl-1-methylxanthine (IBMX) and 1 μM dexamethasone for 7 days. During the differentiation period, cells also optionally received 200 nM T0901317, 7.5 μM Clotrimazole or both.

[1] = target: T2, LXRα-RXR heterodimers and receptor interaction domains of coactivator SRC1 (Homo sapiens, UniProt Q13133); assay: LXR-coactivator association, VP-L-hLXRα / L-hRXRα / GAL4-SRC1 in CV-1 cells; assay type: cell-based; conditions: 20 μM, coactivator GAL4-SRC1, CV-1 cells
T2 construct: expressed in transfected cells; host or cells: CV-1 cells
T2 sequence (Q13133 209-447 limits assumed): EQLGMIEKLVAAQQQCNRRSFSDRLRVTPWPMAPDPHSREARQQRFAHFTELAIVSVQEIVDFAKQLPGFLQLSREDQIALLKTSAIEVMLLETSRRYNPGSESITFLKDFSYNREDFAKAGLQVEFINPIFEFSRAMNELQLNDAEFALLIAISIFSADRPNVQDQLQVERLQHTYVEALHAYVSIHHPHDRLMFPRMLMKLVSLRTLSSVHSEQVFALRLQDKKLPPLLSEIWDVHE
T2 sequence (P19793 227-458 partner limits assumed): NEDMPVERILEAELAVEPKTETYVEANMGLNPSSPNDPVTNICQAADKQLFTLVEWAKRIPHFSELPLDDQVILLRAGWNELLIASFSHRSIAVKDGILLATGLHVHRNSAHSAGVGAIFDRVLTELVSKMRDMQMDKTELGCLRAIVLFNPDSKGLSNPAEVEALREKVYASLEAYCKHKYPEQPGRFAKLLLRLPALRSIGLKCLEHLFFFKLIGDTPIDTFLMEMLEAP
Protocol: CV-1 cells were grown in DMEM supplemented with 10% resin-charcoal stripped fetal bovine serum, 50 U/ml penicillin G and 50 μg/ml streptomycin sulfate at 37° C. in 5% CO2. Cells were plated to 50-80% confluence one day prior to transfection using phenol red-free DMEM-FBS. The cells were transfected by lipofection using N-[1-(2,3-dioleoyloxy)propyl]-N,N,N-ammonium methyl sulfate according to manufacturer's instructions (Boehringer Mannheim).
Genes encoding the following full-length proteins, which are suitable for use in the studies described herein, were cloned into pCMX: human RXRα (Gene Bank accession X52773) and human LXRα (GenBank accession U22662). The cells were transfected with CMX-βgal and luciferase constructs. The CMX-βGal construct contained the ligand binding domain of human RXR (hRXRα) and the ligand binding domain of human LXRα (hLXRα) as indicated in FIG. 1. The luciferase reporter construct (LXREx3 TK-Luc) contained the herpes virus thymidine kinase promoter (−105/+51) linked to three copies of the response element LXRE. After transfection, the cells were treated with 20 μM of a synthetic azole test compound or vehicle alone for 40 hours in phenol red-free DMEM-FBS.
VP-L-hLXRα contains the transactivation domain of Herpes VP16, linked to the LBD of human LXRα, L-hRXRα is the LBD of human RXRα. UASGx4 TK-Luc was the reporter gene, and the assay additionally included the coactivator GAL4-SRC1. Treatment with 20 μM azole compound as indicated was able to inhibit interactions between LXRα-RXR heterodimers and the receptor interaction domains from the coactivator SRC1.

mouse PXR = mouse PXR (Mus musculus, UniProt O54915); conditions: cited from earlier work
human CAR = human CAR (Homo sapiens, UniProt Q14994); conditions: cited from earlier work
CV-1 cells = assay: Cytotoxicity in transfected CV-1 cells; conditions: T0901317 100 nM; Clotrimazole, S883417, S100250 10 μM; approximately 40 hours
Protocol: as §1

Chain of mouse PXR (O54915 whole entry): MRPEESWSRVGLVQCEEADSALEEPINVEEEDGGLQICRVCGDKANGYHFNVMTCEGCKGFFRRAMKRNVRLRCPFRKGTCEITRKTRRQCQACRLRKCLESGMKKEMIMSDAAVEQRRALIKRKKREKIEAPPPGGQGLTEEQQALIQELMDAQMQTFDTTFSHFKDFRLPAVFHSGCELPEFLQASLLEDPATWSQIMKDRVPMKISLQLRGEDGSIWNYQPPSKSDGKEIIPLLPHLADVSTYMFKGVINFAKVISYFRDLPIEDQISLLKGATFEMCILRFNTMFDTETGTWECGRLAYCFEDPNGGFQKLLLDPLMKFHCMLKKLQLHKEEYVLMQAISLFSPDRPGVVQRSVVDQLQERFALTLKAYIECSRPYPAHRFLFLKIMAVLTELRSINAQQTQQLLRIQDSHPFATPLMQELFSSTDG
Chain of human CAR (Q14994 whole entry): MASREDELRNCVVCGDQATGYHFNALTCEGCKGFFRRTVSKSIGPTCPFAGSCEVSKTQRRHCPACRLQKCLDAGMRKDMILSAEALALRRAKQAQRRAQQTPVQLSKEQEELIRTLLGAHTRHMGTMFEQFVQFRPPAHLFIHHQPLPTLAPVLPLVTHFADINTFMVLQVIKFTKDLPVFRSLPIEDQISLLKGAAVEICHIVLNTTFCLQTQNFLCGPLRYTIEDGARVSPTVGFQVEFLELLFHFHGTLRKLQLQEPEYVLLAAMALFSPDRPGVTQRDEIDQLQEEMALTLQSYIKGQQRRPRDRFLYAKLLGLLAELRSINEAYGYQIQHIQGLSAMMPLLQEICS

- effect on RXR (RXR): no effect
Compound: Clc1ccccc1C(c1ccccc1)(c1ccccc1)n1ccnc1 [Clotrimazole]
- toxicity (NIH 3T3-L1 cells): No toxicity
- inhibition of LXR-coactivator association [1]: inhibition of LXR-coactivator association
- activity on mouse PXR (mouse PXR): agonist
- activity on human CAR (human CAR): antagonizes
- cytotoxicity (CV-1 cells): No cytotoxicity

Reference: US20050009837A1, “Modulators of lipid metabolism and methods of use” (City of Hope, priority 2003, published 2005)
